{"source": "patent US5318967A", "about": "“2,3,3a,4,5,9b-hexahydro-1H-benzo[e]indole derivatives” (priority 1991, dated 1994)", "note": "pIC50: −log10 of the molar value.", "data": [{"target": "acetylcholine esterase (Homo sapiens, UniProt P22303)", "sequence (P22303 32-614)": "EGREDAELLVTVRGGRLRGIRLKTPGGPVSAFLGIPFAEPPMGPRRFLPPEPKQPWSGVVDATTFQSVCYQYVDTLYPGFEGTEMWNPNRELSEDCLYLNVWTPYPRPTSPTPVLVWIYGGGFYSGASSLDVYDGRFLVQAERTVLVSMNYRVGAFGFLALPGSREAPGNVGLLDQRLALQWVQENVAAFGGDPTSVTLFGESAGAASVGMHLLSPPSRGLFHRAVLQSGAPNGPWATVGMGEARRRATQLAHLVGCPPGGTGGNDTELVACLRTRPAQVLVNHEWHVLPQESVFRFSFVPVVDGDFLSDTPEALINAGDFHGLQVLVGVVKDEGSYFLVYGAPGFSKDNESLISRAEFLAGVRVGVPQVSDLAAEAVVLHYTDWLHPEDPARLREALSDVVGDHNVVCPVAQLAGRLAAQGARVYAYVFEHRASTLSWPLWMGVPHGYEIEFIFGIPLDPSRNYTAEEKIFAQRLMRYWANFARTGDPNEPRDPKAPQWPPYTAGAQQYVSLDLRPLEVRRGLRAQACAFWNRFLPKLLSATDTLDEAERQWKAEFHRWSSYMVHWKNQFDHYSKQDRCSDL", "test": "biochemical", "settings": "read-out: IC 50 for acetylcholine esterase inhibition", "description": "The determination of the acetylcholine esterase inhibition was effected according to the method of Ellmann et al., Biochem. Pharmacol. 7 (1961) 88, and/or according to the method of Johnson et al., Analytical Biochemistry 64 (1975), 229.", "values": [{"smiles": "CN(C)C(=O)Oc1cccc2c1CC[C@H]1[C@@H]2CCN1CCC1CCCC1", "note": "(racemic) [rac-3-(2-cyclopentylethyl)-cis-2,3,3a,4,5,9b-hexahydro-1H-benzo[e]indol-6-yl dimethylcarbamate]", "pIC50": 7.52}, {"smiles": "CN(C)C(=O)Oc1cccc2c1CC[C@H]1[C@@H]2CCN1CCN1CCCCC1", "note": "(racemic) [rac-3-(2-piperidin-1-yl-ethyl)-cis-2,3,3a,4,5,9b-hexahydro-1H-benzo[e]indol-6-yl dimethylcarbamate]", "pIC50": 7.51}, {"smiles": "CN(C)C(=O)Oc1cccc2c1CC[C@H]1[C@@H]2CCN1CCCC(=O)c1ccccc1", "note": "(racemic) [rac-3-(3-benzoyl-propyl)-cis-2,3,3a,4,5,9b-hexahydro-1H-benzo[e]indol-6-yl dimethylcarbamate]", "pIC50": 8.08}, {"smiles": "CN(C)C(=O)Oc1cccc2c1CC[C@H]1[C@@H]2CCN1CCCC1CCCCC1", "note": "(racemic) [rac-3-(3-cyclohexylpropyl)-cis-2,3,3a,4,5,9b-hexahydro-1H-benzo[e]indol-6-yl dimethylcarbamate]", "pIC50": 7.72}, {"smiles": "CC(C)CCN1CC[C@@H]2c3cccc(OC(=O)N(C)C)c3CC[C@@H]21", "note": "(racemic) [rac-3-(3-methylbutyl)-cis-2,3,3a,4,5,9b-hexahydro-1H-benzo[e]indol-6-yl dimethylcarbamate]", "pIC50": 7.17}, {"smiles": "CN(C)C(=O)Oc1cccc2c1CC[C@H]1[C@@H]2CCN1CCCN1CCOCC1", "note": "(racemic) [rac-3-(3-morpholin-4-yl-propyl)-cis-2,3,3a,4,5,9b-hexahydro-1H-benzo[e]indol-6-yl dimethylcarbamate]", "pIC50": 7.20}, {"smiles": "CN(C)C(=O)Oc1cccc2c1CC[C@H]1[C@@H]2CCN1CCCc1ccccc1", "note": "(racemic) [rac-3-(3-phenylpropyl)-cis-2,3,3a,4,5,9b-hexahydro-1H-benzo[e]indol-6-yl dimethylcarbamate]", "pIC50": 7.44}, {"smiles": "CN(C)C(=O)Oc1cccc2c1CC[C@H]1[C@@H]2CCN1CCCCC(=O)c1ccccc1", "note": "(racemic) [rac-3-(4-benzoyl-butyl)-cis-2,3,3a,4,5,9b-hexahydro-1H-benzo[e]indol-6-yl dimethylcarbamate]", "pIC50": 6.21}, {"smiles": "CN(C)C(=O)Oc1cccc2c1CC[C@H]1[C@@H]2CCN1CCCC(=O)c1ccc(F)cc1", "note": "(racemic) [rac-3-[3-(4-fluoro-benzoyl)-propyl]-cis-2,3,3a,4,5,9b-hexahydro-1H-benzo[e]indol-6-yl dimethylcarbamate]", "pIC50": 8.17}, {"smiles": "CN(C)C(=O)Oc1cccc2c1CC[C@H]1[C@@H]2CCN1CCCCN1Cc2ccccc2C1=O", "note": "(racemic) [rac-3-[4-(1-oxo-isoindolin-2-yl)-butyl]-cis-2,3,3a,4,5,9b-hexahydro-1H-benzo[e]indol-6-yl dimethylcarbamate]", "pIC50": 8.07}, {"smiles": "COc1ccc(C(=O)CCCCN2CC[C@@H]3c4cccc(OC(=O)N(C)C)c4CC[C@@H]32)cc1OC", "note": "(racemic) [rac-3-[4-(3,4-Dimethoxy-benzoyl)-butyl]-cis-2,3,3a,4,5,9b-hexahydro-1H-benzo[e]indol-6-yl dimethylcarbamate]", "pIC50": 8.85}, {"smiles": "CN(C)C(=O)Oc1cccc2c1CC[C@H]1[C@@H]2CCN1CCCCN1C(=O)CC(C)(C)CC1=O", "note": "(racemic) [rac-3-[4-(4,4-dimethyl-2,6-dioxo-piperidin-1-yl)-butyl]-cis-2,3,3a,4,5,9b-hexahydro-1H-benzo[e]indol-6-yl dimethylcarbamate]", "pIC50": 7.89}, {"smiles": "CN(C)C(=O)Oc1cccc2c1CC[C@H]1[C@@H]2CCN1CCCCCN1C(=O)c2ccccc2C1=O", "note": "(racemic) [rac-3-[5-(1,3-dioxo-isoindolin-2-yl)-pentyl]-cis-2,3,3a,4,5,9b-hexahydro-1H-benzo[e]indol-6-yl dimethylcarbamate]", "pIC50": 8.57}, {"smiles": "CN(C)C(=O)Oc1cccc2c1CC[C@H]1[C@@H]2CCN1CCCCCN1Cc2ccccc2C1=O", "note": "(racemic) [rac-3-[5-(1-oxo-isoindolin-2-yl)-pentyl]-cis-2,3,3a,4,5,9b-hexahydro-1H-benzo[e]indol-6-yl dimethylcarbamate]", "pIC50": 8.35}, {"smiles": "COc1ccc(C(=O)CCCCCN2CC[C@@H]3c4cccc(OC(=O)N(C)C)c4CC[C@@H]32)cc1OC", "note": "(racemic) [rac-3-[5-(3,4-dimethoxy-benzoyl)-pentyl]-cis-2,3,3a,4,5,9b-hexahydro-1H-benzo[e]indol-6-yl dimethylcarbamate]", "pIC50": 8.92}, {"smiles": "CN(C)C(=O)Oc1cccc2c1CC[C@H]1[C@@H]2CCN1CCCCCN1C(=O)CC(C)(C)CC1=O", "note": "(racemic) [rac-3-[5-(4,4-dimethyl-2,6-dioxo-piperidin-1-yl)-pentyl]-cis-2,3,3a,4,5,9b-hexahydro-1H-benzo[e]indol-6-yl dimethylcarbamate]", "pIC50": 7.96}, {"smiles": "CN(C)C(=O)Oc1cccc2c1CC[C@H]1[C@@H]2CCN1CCCCCCN1Cc2ccccc2C1=O", "note": "(racemic) [rac-3-[6-(1-oxo-isoindolin-2-yl)-hexyl]-cis-2,3,3a,4,5,9b-hexahydro-1H-benzo[e]indol-6-yl dimethylcarbamate]", "pIC50": 8.54}, {"smiles": "CN(C)C(=O)Oc1cccc2c1CC[C@H]1[C@@H]2CCN1CCCCCCN1C(=O)CC(C)(C)CC1=O", "note": "(racemic) [rac-3-[6-(4,4-dimethyl-2,6-dioxo-piperidin-1-yl)-hexyl]-cis-2,3,3a,4,5,9b-hexahydro-1H-benzo[e]indol-6-yl dimethylcarbamate]", "pIC50": 8.10}, {"smiles": "CN(C)C(=O)Oc1cccc2c1CC[C@H]1[C@@H]2CCN1CC1CCCCC1", "note": "(racemic) [rac-3-cyclohexylmethyl-cis-2,3,3a,4,5,9b-hexahydro-1H-benzo[e]indol-6-yl dimethylcarbamate]", "pIC50": 7.44}, {"smiles": "CN(C)C(=O)Oc1cccc2c1CC[C@H]1[C@@H]2CCN1CCc1ccccc1", "note": "(racemic) [rac-3-phenethyl-cis-2,3,3a,4,5,9b-hexahydro-1H-benzo[e]indol-6-yl dimethylcarbamate]", "pIC50": 7.33}, {"smiles": "CCCN1CC[C@@H]2c3cccc(OC(=O)N(C)C)c3CC[C@@H]21", "note": "(racemic) [rac-3-propyl-cis-2,3,3a,4,5,9b-hexahydro-1H-benzo[e]indol-6-yl dimethylcarbamate]", "pIC50": 7.40}, {"smiles": "CCCCNC(=O)Oc1cccc2c1CC[C@H]1[C@@H]2CCN1CCC1CCCCC1", "note": "(racemic) [rac-cis-3-(2-cyclohexylethyl)-2,3,3a,4,5,9b-hexahydro-1H-benzo[e]indol-6-yl butylcarbamate]", "pIC50": 6.10}, {"smiles": "CN(C)C(=O)Oc1cccc2c1CC[C@H]1[C@@H]2CCN1CCCC1CCCC1", "note": "(racemic) [rac-cis-3-(3-cyclopentyl-propyl)-2,3,3a,4,5,9b-hexahydro-1H-benzo[e]indol-6-yl dimethylcarbamate]", "pIC50": 7.85}, {"smiles": "CN(C)C(=O)Oc1cccc2c1CC[C@H]1[C@@H]2CCN1CCCCNC(=O)c1ccccc1", "note": "(racemic) [rac-cis-3-(4-benzoylaminobutyl)-2,3,3a,4,5,9b-hexahydro-1H-benzo[e]indol-6-yl dimethylcarbamate]", "pIC50": 7.80}, {"smiles": "CN(C)C(=O)Oc1cccc2c1CC[C@H]1[C@@H]2CCN1CCCCC1CCCCC1", "note": "(racemic) [rac-cis-3-(4-cyclohexyl-butyl)-2,3,3a,4,5,9b-hexahydro-1H-benzo[e]indol-6-yl dimethylcarbamate]", "pIC50": 7.46}, {"smiles": "CN(C)C(=O)Oc1cccc2c1CC[C@H]1[C@@H]2CCN1CCCCCNC(=O)c1ccc(S(C)(=O)=O)cc1", "note": "(racemic) [rac-cis-3-[5-(4-methanesulfonylbenzoylamino)pentyl]-2,3,3a,4,5,9b-hexahydro-1H-benzo[e]indol-6-yl dimethylcarbamate]", "pIC50": 8.29}, {"smiles": "CN(C)C(=O)Oc1cccc2c1CC[C@H]1[C@@H]2CCN1C1CCCC1", "note": "(racemic) [rac-cis-3-cyclopentyl-2,3,3a,4,5,9b-hexahydro-1H-benzo[e]indol-6-yl dimethylcarbamate]", "pIC50": 7.02}, {"smiles": "CN(C)C(=O)Oc1cccc2c1CC[C@@H]1[C@H]2CCN1CCCCN", "note": "(relative stereo) [rac-3-(4-aminobutyl)-2,3,3a,4,5,9b-hexahydro-1H-cis-benzo[e]indol-6-yl dimethylcarbamate]", "pIC50": 6.57}, {"smiles": "CN(C)C(=O)Oc1cccc2c1CC[C@@H]1[C@H]2CCN1CCCCCN", "note": "(relative stereo) [rac-3-(5-aminopentyl)-2,3,3a,4,5,9b-hexahydro-1H-cis-benzo[e]indol-6-yl dimethylcarbamate]", "pIC50": 6.95}, {"smiles": "CN(C)C(=O)Oc1cccc2c1CC[C@@H]1[C@H]2CCN1CCCCCNC(=O)c1ccccc1", "note": "(relative stereo) [rac-3-(5-benzoylaminopentyl)-2,3,3a,4,5,9b-hexahydro-1H-cis-benzo[e]indol-6-yl dimethylcarbamate]", "pIC50": 7.82}, {"smiles": "CN(C)C(=O)Oc1cccc2c1CC[C@@H]1[C@H]2CCN1CCCCCCN", "note": "(relative stereo) [rac-3-(6-aminohexyl)-2,3,3a,4,5,9b-hexahydro-1H-cis-benzo[e]indol-6-yl dimethylcarbamate]", "pIC50": 8.10}, {"smiles": "CN(C)C(=O)Oc1cccc2c1CC[C@@H]1[C@H]2CCN1CCCCCCNC(=O)c1ccccc1", "note": "(relative stereo) [rac-3-(6-benzoylamino-hexyl)-2,3,3a,4,5,9b-hexahydro-1H-cis-benzo[e]indol-6-yl-dimethylcarbamate]", "pIC50": 7.96}, {"smiles": "CN(C)C(=O)Oc1cccc2c1CC[C@@H]1[C@H]2CCN1CCCCCN1C(=O)[C@H]2CCCC[C@H]2C1=O", "note": "(relative stereo) [rac-3-[5-(1,3-dioxo-octahydro-cis-isoindol-2-yl)pentyl]-2,3,3a,4,5,9b-hexahydro-1H-cis-benzo[e]indol-6-yl dimethylcarbamate]", "pIC50": 8.11}, {"smiles": "CN(C)C(=O)Oc1cccc2c1CC[C@@H]1[C@H]2CCN1CCCCCCNC(=O)c1ccc(S(C)(=O)=O)cc1", "note": "(relative stereo) [rac-3-[6-(4-methanesulfonyl-benzoylamino)hexyl]-2,3,3a,4,5,9b-hexahydro-1H-cis-benzo[e]indol-6-yl-dimethylcarbamate]", "pIC50": 8.25}, {"smiles": "CN(C)C(=O)Oc1cccc2c1CC[C@@H]1[C@H]2CCN1Cc1ccccc1", "note": "(relative stereo) [rac-3-benzyl-2,3,3a,4,5,9b-hexahydro-1H-cis-benzo[e]indol-6-yl dimethylcarbamate]", "pIC50": 7.31}, {"smiles": "CN(C)C(=O)Oc1cccc2c1CC[C@@H]1[C@H]2CCN1CCCCNC(=O)c1ccc(S(C)(=O)=O)cc1", "note": "(relative stereo) [rac-N-[4-(6-dimethylcarbamoyloxy)-cis-2,3,3a,4,5,9b-hexahydro-1H-benzo[e]indol-3-yl)-butyl]-4-methanesulfonylbenzamide]", "pIC50": 8.17}]}]}
